According to publication PMC5218480 (PLoS ONE, 2017):

Test system: MV-4-11 cells
Experiment: Gene expression microarray analysis (Affymetrix PrimeView) and GSEA
Format: cell-based, human
Design: RFU PODN (11730768_x_at) / Fold change /veh PODN (11730768_x_at) / RFU LINC00158 (11744669_a_at) / Fold change /veh LINC00158 (11744669_a_at) / RFU DUSP10 (11751237_a_at) / Fold change /veh DUSP10 (11751237_a_at) / RFU ID3 (11757404_x_at) / Fold change /veh ID3 (11757404_x_at) / RFU PLEKHG5 (11737974_s_at) / Fold change /veh PLEKHG5 (11737974_s_at) / RFU LRRC4B (11730491_at) / Fold change /veh LRRC4B (11730491_at) / RFU GIMAP4 (11747438_a_at) / Fold change /veh GIMAP4 (11747438_a_at) / RFU KRT8 (11758183_x_at) / Fold change /veh KRT8 (11758183_x_at) / RFU CNN1 (11734310_a_at) / Fold change /veh CNN1 (11734310_a_at) / RFU VPS37D (11726825_at) / Fold change /veh VPS37D (11726825_at) / RFU C10orf10 (11716522_x_at) / Fold change /veh C10orf10 (11716522_x_at) / RFU KIR2DL2 /// KIR2DL4 /// KIR2DL5A /// KIR2DL5B /// KIR2DS1 /// KIR2DS2 /// KIR2DS3 /// KIR2DS4 /// KIR3DL3 /// KIR3DL3 /// KIR3DS1 (11738374_at) / Fold change /veh KIR2DL2 /// KIR2DL4 /// KIR2DL5A /// KIR2DL5B /// KIR2DS1 /// KIR2DS2 /// KIR2DS3 /// KIR2DS4 /// KIR3DL3 /// KIR3DL3 /// KIR3DS1 (11738374_at) / RFU C1QL1 (11718748_at) / Fold change /veh C1QL1 (11718748_at) / RFU TMPRSS4 (11747572_a_at) / Fold change /veh TMPRSS4 (11747572_a_at) / RFU HAMP (11756126_x_at) / Fold change /veh HAMP (11756126_x_at) / RFU RNFT2 (11725882_a_at) / Fold change /veh RNFT2 (11725882_a_at) / RFU NR4A2 (11747474_a_at) / Fold change /veh NR4A2 (11747474_a_at) / RFU ABCC12 (11746883_a_at) / Fold change /veh ABCC12 (11746883_a_at) / RFU TMEM136 (11760407_x_at) / Fold change /veh TMEM136 (11760407_x_at) / RFU CLDN22 /// WWC2 (11732394_at) / Fold change /veh CLDN22 /// WWC2 (11732394_at) / RFU HLA-DPB1 (11760878_x_at) / Fold change /veh HLA-DPB1 (11760878_x_at) / RFU SPINT1 (11716480_a_at) / Fold change /veh SPINT1 (11716480_a_at) / RFU GAP43 (11754022_s_at) / Fold change /veh GAP43 (11754022_s_at) / RFU A4GNT (11735810_at) / Fold change /veh A4GNT (11735810_at) / RFU PRB3 (11715151_x_at) / Fold change /veh PRB3 (11715151_x_at) / RFU TUBB4B (11761932_at) / Fold change /veh TUBB4B (11761932_at) / RFU CAPN14 (11732068_a_at) / Fold change /veh CAPN14 (11732068_a_at) / RFU TMCC2 (11721928_a_at) / Fold change /veh TMCC2 (11721928_a_at) / RFU IRGQ (11745062_a_at) / Fold change /veh IRGQ (11745062_a_at) / RFU FAM174B (11720279_a_at) / Fold change /veh FAM174B (11720279_a_at) / RFU TMPRSS4 (11748680_a_at) / Fold change /veh TMPRSS4 (11748680_a_at) / RFU FAM212B (11763350_a_at) / Fold change /veh FAM212B (11763350_a_at) / RFU PLEKHG5 (11743358_a_at) / Fold change /veh PLEKHG5 (11743358_a_at) / RFU ZSCAN30 (11745921_a_at) / Fold change /veh ZSCAN30 (11745921_a_at) / RFU CMKLR1 (11741424_a_at) / Fold change /veh CMKLR1 (11741424_a_at) / RFU LOC101060620 /// MAPK8IP1 (11723275_at) / Fold change /veh LOC101060620 /// MAPK8IP1 (11723275_at) / RFU SPTSSB (11747773_x_at) / Fold change /veh SPTSSB (11747773_x_at) / RFU PRSS12 (11739890_at) / Fold change /veh PRSS12 (11739890_at) / RFU BIN1 (11741810_x_at) / Fold change /veh BIN1 (11741810_x_at) / RFU WNT11 (11732464_a_at) / Fold change /veh WNT11 (11732464_a_at) / RFU C10orf10 (11716521_a_at) / Fold change /veh C10orf10 (11716521_a_at) / RFU C5orf56 (11738089_at) / Fold change /veh C5orf56 (11738089_at) / RFU CYB561 (11721691_x_at) / Fold change /veh CYB561 (11721691_x_at) / RFU ANKRD19P (11752326_a_at) / Fold change /veh ANKRD19P (11752326_a_at) / RFU OR2T12 /// OR2T33 /// OR2T8 (11738714_s_at) / Fold change /veh OR2T12 /// OR2T33 /// OR2T8 (11738714_s_at) / RFU VCAN (11748164_a_at) / Fold change /veh VCAN (11748164_a_at) / RFU JSRP1 (11732532_at) / Fold change /veh JSRP1 (11732532_at) / RFU KRTAP10-11 (11738290_x_at) / Fold change /veh KRTAP10-11 (11738290_x_at) / RFU MYO3A (11730013_a_at) / Fold change /veh MYO3A (11730013_a_at) / RFU EBF3 (11725865_a_at) / Fold change /veh EBF3 (11725865_a_at) / RFU CAMK2N1 (11719241_x_at) / Fold change /veh CAMK2N1 (11719241_x_at) / RFU C5orf56 (11738088_a_at) / Fold change /veh C5orf56 (11738088_a_at) / RFU OLFML3 (11715873_a_at) / Fold change /veh OLFML3 (11715873_a_at) / RFU LOC100653217 /// NTM (11731650_a_at) / Fold change /veh LOC100653217 /// NTM (11731650_a_at) / RFU MAPK11 (11762145_a_at) / Fold change /veh MAPK11 (11762145_a_at) / RFU FIZ1 (11724087_x_at) / Fold change /veh FIZ1 (11724087_x_at) / RFU OASL (11726364_x_at) / Fold change /veh OASL (11726364_x_at) / RFU SOX15 (11748057_x_at) / Fold change /veh SOX15 (11748057_x_at) / RFU CD79A (11719716_a_at) / Fold change /veh CD79A (11719716_a_at) / RFU HIST1H1D (11736915_at) / Fold change /veh HIST1H1D (11736915_at) / RFU CASKIN2 (11723855_a_at) / Fold change /veh CASKIN2 (11723855_a_at) / RFU LOC730098 (11760151_x_at) / Fold change /veh LOC730098 (11760151_x_at) / RFU OR4N2 (11742367_at) / Fold change /veh OR4N2 (11742367_at) / RFU PRRT2 (11749266_a_at) / Fold change /veh PRRT2 (11749266_a_at) / RFU SNX32 (11753110_a_at) / Fold change /veh SNX32 (11753110_a_at) / RFU CDHR5 (11726645_a_at) / Fold change /veh CDHR5 (11726645_a_at) / RFU RCAN1 (11760418_a_at) / Fold change /veh RCAN1 (11760418_a_at) / RFU FAM167A (11723789_a_at) / Fold change /veh FAM167A (11723789_a_at) / RFU FAM26E (11764081_at) / Fold change /veh FAM26E (11764081_at) / RFU ISYNA1 (11749810_s_at) / Fold change /veh ISYNA1 (11749810_s_at) / RFU ACY1 (11761880_at) / Fold change /veh ACY1 (11761880_at) / RFU 11764098_at / Fold change /veh 11764098_at / RFU SAMD14 (11745864_x_at) / Fold change /veh SAMD14 (11745864_x_at) / RFU NPB (11741838_a_at) / Fold change /veh NPB (11741838_a_at) / RFU TMPRSS6 (11731388_a_at) / Fold change /veh TMPRSS6 (11731388_a_at) / RFU KRTAP10-2 (11738614_at) / Fold change /veh KRTAP10-2 (11738614_at) / RFU ARHGAP8 /// PRR5-ARHGAP8 (11727945_x_at) / Fold change /veh ARHGAP8 /// PRR5-ARHGAP8 (11727945_x_at) / RFU KRTAP5-7 /// NADSYN1 (11734609_at) / Fold change /veh KRTAP5-7 /// NADSYN1 (11734609_at) / RFU RASL12 (11751679_a_at) / Fold change /veh RASL12 (11751679_a_at) / RFU CDKN2B (11736163_a_at) / Fold change /veh CDKN2B (11736163_a_at) / RFU PRF1 (11729649_at) / Fold change /veh PRF1 (11729649_at) / RFU, ZNF638 /// ZNF638-IT1 / Fold change vs veh, ZNF638 /// ZNF638-IT1 / RFU, PANK3 / Fold change vs veh, PANK3 / RFU, SH3YL1 / Fold change vs veh, SH3YL1 / RFU, ZEB2 / Fold change vs veh, ZEB2 / RFU, NRIP1 / Fold change vs veh, NRIP1 / RFU, PTTG1IP / Fold change vs veh, PTTG1IP / RFU, CAPN2 / Fold change vs veh, CAPN2 / RFU, MED14 / Fold change vs veh, MED14 / RFU, SNORA58 / Fold change vs veh, SNORA58 / RFU, C1orf63 / Fold change vs veh, C1orf63 / RFU, LRRFIP1 / Fold change vs veh, LRRFIP1 / RFU, NDUFAF7 / Fold change vs veh, NDUFAF7 / RFU, SLC12A2 / Fold change vs veh, SLC12A2 / RFU, IBTK / Fold change vs veh, IBTK / RFU, ESF1 / Fold change vs veh, ESF1 / Fold change vs veh, TMEM50B / RFU, TAOK1 / Fold change vs veh, TAOK1 / RFU, ACBD3 / Fold change vs veh, ACBD3 / RFU, TMA16 / Fold change vs veh, TMA16 / RFU, RWDD3 / Fold change vs veh, RWDD3 / RFU, BCAT1 / Fold change vs veh, BCAT1 / RFU, EDEM3 / Fold change vs veh, EDEM3 / RFU, TMEM33 / Fold change vs veh, TMEM33 / RFU, WDR75 / Fold change vs veh, WDR75 / RFU, AHCTF1 / Fold change vs veh, AHCTF1 / RFU, TFRC / Fold change vs veh, TFRC / RFU, ZDHHC17 / Fold change vs veh, ZDHHC17 / RFU, NOM1 / Fold change vs veh, NOM1 / RFU, ARL8B / Fold change vs veh, ARL8B / RFU, ZBTB11 / Fold change vs veh, ZBTB11 / RFU, TAMM41 / Fold change vs veh, TAMM41 / RFU, KIAA1704 /// LOC100996395 / Fold change vs veh, KIAA1704 /// LOC100996395 / RFU, ING1 / Fold change vs veh, ING1 / RFU, TRMT61B / Fold change vs veh, TRMT61B / RFU, FUBP3 / Fold change vs veh, FUBP3 / RFU, TP53 / Fold change vs veh, TP53 / RFU, TNKS2 / Fold change vs veh, TNKS2 / RFU, ZFP14 / Fold change vs veh, ZFP14 / RFU, ACTR2 / Fold change vs veh, ACTR2 / RFU, PPP3R1 / Fold change vs veh, PPP3R1 / RFU, PIK3R1 / Fold change vs veh, PIK3R1 / RFU, HNRNPA1 / Fold change vs veh, HNRNPA1 / RFU, RNF170 / Fold change vs veh, RNF170 / RFU, ZNF28 / Fold change vs veh, ZNF28 / RFU, RNGTT / Fold change vs veh, RNGTT / RFU, OGT / Fold change vs veh, OGT / RFU, BRD1 / Fold change vs veh, BRD1 / RFU, MARS / Fold change vs veh, MARS / RFU, ZNF655 / Fold change vs veh, ZNF655 / RFU, FAHD1 / Fold change vs veh, FAHD1 / RFU, BDP1 / Fold change vs veh, BDP1 / RFU, LRRCC1 / Fold change vs veh, LRRCC1 / RFU, ARID1A / Fold change vs veh, ARID1A / RFU, ZNF146 / Fold change vs veh, ZNF146 / RFU, ZNF330 / Fold change vs veh, ZNF330 / RFU, GPN3 / Fold change vs veh, GPN3 / RFU, C9orf123 / Fold change vs veh, C9orf123 / RFU, N4BP2L2 / Fold change vs veh, N4BP2L2 / RFU, ARFIP1 / Fold change vs veh, ARFIP1 / RFU, FAM179B / Fold change vs veh, FAM179B / RFU, BCL10 / Fold change vs veh, BCL10 / RFU, UHRF1BP1L / Fold change vs veh, UHRF1BP1L / RFU, BET1 / Fold change vs veh, BET1 / RFU, CNOT2 / Fold change vs veh, CNOT2 / RFU, ZNF268 / Fold change vs veh, ZNF268 / Fold change vs veh, ZNF507 / RFU, DGCR2 / Fold change vs veh, DGCR2 / RFU, WDSUB1 / Fold change vs veh, WDSUB1 / Fold change vs veh, HSP90B1 /// MIR3652 / RFU, ADSS / Fold change vs veh, ADSS / RFU, GK / Fold change vs veh, GK / RFU, ZNF148 / Fold change vs veh, ZNF148 / RFU, TAF9 / Fold change vs veh, TAF9 / RFU, SLC1A5 / Fold change vs veh, SLC1A5 / RFU, SLMO2 / Fold change vs veh, SLMO2 / RFU, ABCC4 / Fold change vs veh, ABCC4 / RFU, LOC101060439 /// RAP1B / Fold change vs veh, LOC101060439 /// RAP1B / RFU, RFX7 / Fold change vs veh, RFX7 / RFU, GTPBP10 / Fold change vs veh, GTPBP10 / RFU, CNEP1R1 / Fold change vs veh, CNEP1R1 / RFU, BIVM-ERCC5 /// ERCC5 / Fold change vs veh, BIVM-ERCC5 /// ERCC5 / RFU, ILF3 / Fold change vs veh, ILF3 / RFU 11762660_at / Fold change /veh 11762660_at / RFU VCAN (11757783_s_at) / Fold change /veh VCAN (11757783_s_at) / RFU DDX43 (11728927_at) / Fold change /veh DDX43 (11728927_at) / RFU KRT8 (11758188_x_at) / Fold change /veh KRT8 (11758188_x_at) / RFU NKD1 (11759106_at) / Fold change /veh NKD1 (11759106_at) / RFU SRD5A1 (11742802_a_at) / Fold change /veh SRD5A1 (11742802_a_at) / RFU TPSAB1 /// TPSB2 (11721975_s_at) / Fold change /veh TPSAB1 /// TPSB2 (11721975_s_at) / RFU GSTM3 (11746129_a_at) / Fold change /veh GSTM3 (11746129_a_at) / RFU IL23R (11737362_x_at) / Fold change /veh IL23R (11737362_x_at) / RFU TMEM51 (11727254_a_at) / Fold change /veh TMEM51 (11727254_a_at) / RFU PIWIL2 (11732686_x_at) / Fold change /veh PIWIL2 (11732686_x_at) / RFU ORM1 (11744905_x_at) / Fold change /veh ORM1 (11744905_x_at) / RFU CCDC152 (11743942_at) / Fold change /veh CCDC152 (11743942_at) / RFU ECM1 (11717891_a_at) / Fold change /veh ECM1 (11717891_a_at) / RFU IL23R (11748794_a_at) / Fold change /veh IL23R (11748794_a_at) / RFU TNFAIP8L3 (11732012_x_at) / Fold change /veh TNFAIP8L3 (11732012_x_at) / RFU MBOAT4 (11741988_at) / Fold change /veh MBOAT4 (11741988_at) / RFU 11764193_at / Fold change /veh 11764193_at / RFU TMEM53 (11763286_at) / Fold change /veh TMEM53 (11763286_at) / RFU MAGEB2 (11727129_at) / Fold change /veh MAGEB2 (11727129_at) / RFU TMEM200A (11744735_a_at) / Fold change /veh TMEM200A (11744735_a_at) / RFU CCDC152 (11751479_a_at) / Fold change /veh CCDC152 (11751479_a_at) / RFU FAM211A (11726209_a_at) / Fold change /veh FAM211A (11726209_a_at) / RFU RGS16 (11746705_a_at) / Fold change /veh RGS16 (11746705_a_at) / RFU VCAN (11755009_s_at) / Fold change /veh VCAN (11755009_s_at) / RFU RHOB (11743442_s_at) / Fold change /veh RHOB (11743442_s_at) / RFU RGS16 (11720943_a_at) / Fold change /veh RGS16 (11720943_a_at) / RFU RGS16 (11720944_at) / Fold change /veh RGS16 (11720944_at) / RFU, VPS4B / Fold change vs veh, VPS4B / RFU, CREB1 / Fold change vs veh, CREB1 / RFU, DNAJC13 / Fold change vs veh, DNAJC13 / RFU, GNAQ / Fold change vs veh, GNAQ / RFU, CDK5R1 / Fold change vs veh, CDK5R1 / RFU, ZRANB3 / Fold change vs veh, ZRANB3 / RFU, CUL4A / Fold change vs veh, CUL4A / RFU, CCNY / Fold change vs veh, CCNY / RFU, UFL1 / Fold change vs veh, UFL1 / RFU, COG3 / Fold change vs veh, COG3 / RFU, DIAPH2 / Fold change vs veh, DIAPH2 / RFU, SKA2 / Fold change vs veh, SKA2 / RFU, AFF3 / Fold change vs veh, AFF3 / RFU, LMF1 / Fold change vs veh, LMF1 / RFU, IPO11 / Fold change vs veh, IPO11 / RFU, DFFB / Fold change vs veh, DFFB / RFU, FOXP1 / Fold change vs veh, FOXP1 / RFU, CARD8 / Fold change vs veh, CARD8 / RFU, STRN3 / Fold change vs veh, STRN3 / RFU, ADK / Fold change vs veh, ADK / RFU, RASSF2 / Fold change vs veh, RASSF2 / RFU, WIPF1 / Fold change vs veh, WIPF1 / RFU, LARP1B / Fold change vs veh, LARP1B / RFU, RASA1 / Fold change vs veh, RASA1 / RFU, RB1 / Fold change vs veh, RB1 / RFU, PPFIA1 / Fold change vs veh, PPFIA1 / RFU, MAT2A / Fold change vs veh, MAT2A / RFU, CCT5 / Fold change vs veh, CCT5 / RFU, WDR92 / Fold change vs veh, WDR92 / RFU, CUX1 / Fold change vs veh, CUX1 / RFU, TTC7A / Fold change vs veh, TTC7A / RFU, TMEM135 / Fold change vs veh, TMEM135 / RFU, DEPTOR / Fold change vs veh, DEPTOR / RFU, CPM / Fold change vs veh, CPM / RFU, DNAJB6 / Fold change vs veh, DNAJB6 / RFU, CACNA2D3 / Fold change vs veh, CACNA2D3 / RFU, DTX4 / Fold change vs veh, DTX4 / RFU, TFCP2 / Fold change vs veh, TFCP2 / RFU, GMCL1 /// GMCL1P1 / Fold change vs veh, GMCL1 /// GMCL1P1 / RFU, AEBP2 / Fold change vs veh, AEBP2 / RFU, SNHG1 /// SNORD22 /// SNORD25 /// SNORD26 /// SNORD27 /// SNORD28 /// SNORD29 /// SNORD31 / Fold change vs veh, SNHG1 /// SNORD22 /// SNORD25 /// SNORD26 /// SNORD27 /// SNORD28 /// SNORD29 /// SNORD31 / Fold change (Aza/veh), C12orf56 (ProbeSet 11735607_a_at) / Fold change (ACY-1035/veh), C12orf56 (ProbeSet 11735607_a_at) / Fold change (Aza/veh), FGFR1OP (ProbeSet 11751329_s_at) / Fold change (ACY-1035/veh), FGFR1OP (ProbeSet 11751329_s_at) / Fold change (Aza/veh), VPS36 (ProbeSet 11739960_a_at) / Fold change (ACY-1035/veh), VPS36 (ProbeSet 11739960_a_at) / RFU SYPL1 (11715823_x_at) / Fold change /veh SYPL1 (11715823_x_at) / RFU IGFBP7 (11715501_s_at) / Fold change /veh IGFBP7 (11715501_s_at) / RFU REEP3 (11722064_at) / Fold change /veh REEP3 (11722064_at) / RFU IGLL1 (11728026_x_at) / Fold change /veh IGLL1 (11728026_x_at): dose or concentration left out as unconfirmed
Conditions: MV-4-11 cells, 48 hours

Compound: Nc1ccc(-c2cccs2)cc1NC(=O)c1ccc2c(c1)cc(C1CC1)n2CCN1CCOCC1 [ACY-1035]
- Fold change /veh CDHR5 (11726645_a_at): 1.11
